Measured values: US10568949B2, “Method of eliciting an anti-tumor immune response with controlled delivery of TLR agonists in porous polymerlc devices” (President and Fellows of Harvard College, priority 2008, dated 2020)

B1: CCL20 (protein, UniProt O89093 28-97, looked up)
C-C motif chemokine 20: ASNYDCCLSYIQTPLPSRAIVGFTRQMADEACDINAIIFHTKKRKSVCADPKQNWVKRAVNLLSLRVKKM
notes: recombinant murine cytokine (Peprotech) released from PLG matrices
B2: Fms-related tyrosine kinase 3 ligand (protein, UniProt P49772 27-232, looked up)
Fms-related tyrosine kinase 3 …: GTPDCYFSHSPISSNFKVKFRELTDHLLKDYPVTVAVNLQDEKHCKALWSLFLAQRWIEQLKTVAGSKMQTLLEDVNTEIHFVTSCTFQPLPECLRFVQTNISHLLKDTCTQLLALKPCIGKACQNFSRCLEVQCQPDSSTLLPPRSPIALEATELPEPRPRQLLLLLLLLLPLTLVLLAAAWGLRWQRARRRGELHPGVPLPSHP
notes: as for B1

Columns and labels:
[1] = tested on: dendritic cells; test: Example 7: DC recruitment and activation in matrices with GM-CSF and TLR agonists (FACS, day 7); format: in vivo, C57BL/6J mice; conditions: with GM-CSF
From the text: The cell suspensions were then poured through a 40 μm cell strainer to isolate cells from scaffold particles and the cells were pelleted and washed with cold PBS and counted using a Z2 coulter counter (Beckman Coulter). To assess, DC infiltration and activation, subsets of the total cell population isolated from PLG matrices were then stained with primary antibodies (BD Pharmingen, San Diego, Calif.) conjugated to fluorescent markers to allow for analysis by flow cytometry. APC-conjugated CD11c (dendritic cell marker), FITC-conjugated MHCII and PE-conjugated CD86 (B7, costimulatory molecule) stains were conducted for DC recruitment and activation analysis. To further delineate the presence of specific DC subsets, cells were also stained with APC-conjugated CD11c and PE-conjugated PDCA-1 (plasmacytoid DC marker) or APC-conjugated CD11c and PE-conjugated CD8 (CD8 DCs). To assess T-cell infiltration PE-Cy7 conjugated CD3 stains were performed in conjunction with APC-conjugated CD8a (CD8 T cells), and PE-conjugated FoxP3 (Treg) and analyzed with flow cytometry. Cells were gated according to single positive FITC, APC and PE stainings and using isotype controls. The percentage of cells staining positive for each surface antigen was recorded. To examine the ability of PLG matrices to recruit and activate dendritic cells in vivo, matrices delivering GM-CSF in combination with danger signals were implanted subcutaneously into the backs of C57BL/6J mice. The magnitude of DC infiltration and activation into the matrices was determined by FACS analysis of cell populations isolated from the polymeric material after 7 days.

[2] = tested on: IL-12p70; test: Example 7: cytokine concentrations at implant site; format: in vivo, C57BL/6J mice; conditions: with GM-CSF
Experimental: To determine in vivo IL-12p70 concentration at the matrix implant site, adjacent tissue was excised and digested with tissue protein extraction reagent. After centrifugation, the concentrations of IL-12, in the supernatant were then analyzed with ELISA (R&D systems), according to the manufacturer's instructions.

[3] = tested on: B16-F10 melanoma cells; test: Example 7: therapeutic vaccination of established B16-F10 melanoma
Experimental: To assess PLG vaccine efficacy in the therapeutic setting, C57/BL6J mice were challenged with a subcutaneous injection of 5×10^5 B16-F10 melanoma cells (ATCC, Manassas, N.J.) in the back of the neck. At day 9 after tumor challenge PLG vaccines loaded with 3000 ng GM-CSF in combination with 100 μg of CpG-ODN, MPLA or P(I:C), and tumor lysates were implanted subcutaneously into the lower left flank of C57BL/6J mice. A subset of mice were vaccinated again 10 days after the initial vaccination (Days 19 and 23).
Mice challenged with 5×10^5B16-F10 melanoma cells were subsequently vaccinated at days 9 and 19, after tumors were established.

[4] = tested on: B16-F10 tumors; test: Example 7: tumor infiltrating leukocyte (TIL) characterization; design: species or system C57BL/6J mice; conditions: mouse, in vivo
Experimental: On the indicated days, B16-F10 tumors were removed from mice, and digested in 1 mg/mL collagenase II (250 U/ml) (Worthington, Lakewood, N.J.) and 0.1 mg/mL DNase for 1 hour at 37° C. Dissociated cells were filtered through a 40-μm filter, and directly stained with antibodies for phenotype characterization by fluorescence-activated cell sorting (FACS) analysis. APC-anti-CD8 and PE-Cy7-anti CD3 were used to identify T cells isolated from the B16F10 tumors. These TILs were also costained with FITC-anti-IFNγ, and PE-anti-CD107a. All antibodies were obtained from eBioscience, San Diego, Calif.

[5] = tested on: B16-F10 melanoma cells; test: Example 7: prophylactic vaccination, B16-F10 melanoma; format: in vivo, C57BL/6J mice; design: concentration or dose not given beside the values; conditions: B16-F10 tumor lysates and GM-CSF, with or without TLR agonist; challenge at day 14
[6] = tested on: dendritic cells; test: Example 8: DC recruitment and activation in cytokine loaded PLG matrices (FACS, day 7); format: in vivo, C57BL/6J mice; conditions: for DC recruitment relative to blank PLG matrices: day 7
Experimental: To analyze DC recruitment by FACS analysis, scaffolds were excised and the ingrown tissue was digested into single cell suspensions using a collagenase solution (Worthingtion, 250 U/ml) that was agitated at 37° C. for 45 minutes. The cell suspensions were then poured through a 40 μm cell strainer to isolate cells from scaffold particles and the cells were pelleted and washed with cold PBS and counted using a Z2 coulter counter (Beckman Coulter). To assess, DC infiltration and activation, subsets of the total cell population isolated from PLG matrices were then stained with primary antibodies (BD Pharmingen, San Diego, Calif.) conjugated to fluorescent markers to allow for analysis by flow cytometry. APC-conjugated CD11c (dendritic cell marker), FITC-conjugated MHCII and PE-conjugated CD86 (B7, costimulatory molecule) stains were conducted for DC recruitment and activation analysis. To delineate the presence of the plasmacytoid DC subset, cells were also stained with APC-conjugated CD11c and PE-conjugated PDCA-1 (plasmacytoid DC marker). Cells were gated according to single positive FITC, APC and PE stainings using isotype controls. The percentage of cells staining positive for each surface antigen was recorded.

[7] = tested on: B16-F10 melanoma cells; test: Example 8: therapeutic vaccination, B16-F10 melanoma; format: in vivo, C57BL/6J mice; conditions: vaccinated three days after tumor challenge
Experimental: PLG scaffolds containing B16-F10 melanoma tumor lysates, 100 μg CpG-ODN in combination with 3 μg GM-CSF, Flt3L or CCL20 were implanted subcutaneously into the lower left flank of C57BL/6J mice to act as cancer vaccines. To assess PLG vaccine efficacy in the therapeutic setting, C57/BL6J mice were challenged with a subcutaneous injection of 5×10^5 B16-F10 melanoma cells (ATCC, Manassas, N.J.) in the back of the neck, and 3 days after tumor challenge PLG vaccines were implanted subcutaneously into the lower left flank. Animals were monitored for the onset of tumor growth (approximately 1 mm^3) and sacrificed for humane reasons when tumors grew to 20-25 mm (longest diameter).

[8] = tested on: bone marrow derived dendritic cells; test: Example 8: transwell chemotaxis and chemokinesis of bone marrow derived DCs; format: cell-based, C57BL/6 mice; conditions: 12 h; for DC chemotaxis, migration higher than control condition: 500 ng/ml in bottom wells; for DC chemokinesis, increase in number of migrated cells: homogenous cytokine 500 ng/ml
Experimental: Primary bone-marrow-derived dendritic cells (BMDCs) were flushed from the femurs of C57BL/6 mice and cultured in 100-mm bacteriological petri dishes (Falcon number 1029/Becton Dickinson). Cell culture medium RPMI-1640 (R10) (Sigma) was supplemented with 1% Penicillin-Streptomycin (Invitrogen), 2 mM 1-Glutamine (Invitrogen), 50 μM 2-mercaptoethanol (Sigma) and 10% heat-inactivated fetal bovine serum (FBS, Invitrogen). At day 0, bone marrow leukocytes were seeded at 2×10^6 cells per 100-mm dish in 10 ml R10 medium containing 20 ng/nil granulocyte-macrophage colony-stimulating factor (GM-CSF) (Peprotech). At day 3, another 10 ml R10 medium containing 20 ng/mL GM-CSF was added. to the plates. At days 6 and 8, half of the culture supernatant was collected and centrifuged, the cell pellet was resuspended in 10 ml fresh R10 containing 20 ng/mL GM-CSF, and placed back into the original plate. The non-adherent cell population in the culture supernatant was used between days 8 and 12 for all the experiments.
Transwell migration studies were performed by plating bone marrow derived dendritic cells in the top well of 6.5 mm transwell dishes (Costar, Cambridge, Mass.) with a pore size of 5 μm. The chemotactic effects of GM-CSF, FL (Flt3), and CCL20 on the migration of BMDCs was assessed by placing 500 ng/ml of recombinant murine GM-CSF, FL or CCL20 (Peprotech, Rocky Hill, N.J.) in the bottom wells and 3×10^5 DCs in the top wells. For chemokinesis studies, the concentration of cytokine in each compartment was equal at 500 ng/ml and 3×10^5 DCs were added to the top wells. The number of cells that migrated from the top well to the bottom well through the porous membrane was counted at the end of 12 h to quantify migration. Cells that had migrated to the bottom well were collected by treatment with 0.25% trypsin-0.03% ethylenediaminetetraacetic acid (EDTA, Invitrogen) and counted with a Z2 coulter counter (Beckman Coulter, Inc).

[9] = tested on: IL-12p70 and IFN-γ; conditions: tumor lysate and CpG-ODN
Experimental: To determine the in vivo IL-12p70 and IFN-γ concentration at the matrix implant site, adjacent tissue was excised and digested with tissue protein extraction reagent at Day 10 after implantation (Pierce). After centrifugation, the concentrations of IL-12 and IFN-γ, in the supernatant were then analyzed with ELISA (R&D systems), according to the manufacturer's instructions. To determine the generation of TRP-2-specific cytotoxic T lymphocytes, single cell suspensions were prepared at Day 10 from the spleens of mice immunized with PLG vaccines. These cells were initially stained with PE-H-2Kb/TRP2 pentamers (Sigma Aldrich), and subsequently stained with FITC-anti-CD8 and PE-CY7 CD3 mAb (mAb (BD Pharmingen, San Diego) before being analyzed using flow cytometry.

[10] = In vitro release / retention of GM-CSF, cytokines and TLR agonists from PLG scaffolds; format: physicochemical; conditions: for incorporated cytokine released from scaffolds: by day 4, in vitro; for daily release of protein: over the next 23 days after day 4
Experimental: To determine the incorporation efficiency of CpG-ODN incorporation, PLG scaffolds were prepared with 50 ug of CpG-ODN and digested in 1 ml of chloroform (Sigma Aldrich, and washed with 2 mls of aqueous buffer. The aqueous phase was isolated and the amount of CpG-ODN incorporated was determined by absorbance readings (260/280 and 260/230 ratios calculated at 0.2 mm pathlength) using a Nanodrop instrument, ND1000 (Nanodrop technologies, Wilmington, Del.). Similarly, to determine CpG-ODN release kinetics CpG-ODN loaded scaffolds were placed in 1 ml of Phosphate Buffer Solution (PBS) in an incubator (37° C.). At various timepoints, the PBS release media was collected and replaced with fresh media. The total amount of CpG-ODN incorporated into PLG scaffolds and released into PBS over time was analyzed and recorded.

[11] = tested on: TRP-2-specific cytotoxic T lymphocytes; test: Example 8: TRP-2-specific cytotoxic T lymphocytes in spleens (Day 10); design: species or system C57BL/6J mice; conditions: mouse, in vivo

Molecule | CD8(+) DCs at implant site, higher than controls [1] | CD11c(+) cells positive for MHCII(+) and CD86(+), of total cells recruited [1] [%] | enhancement of total number of recruited DCs compared to GM-CSF delivery alone [1] [fold] | increase in total number of activated DCs relative to control matrices [1] | effect on IFN-α concentration at vaccine site [2] | complete tumor regression, fraction of vaccinated animals ([3]; mouse, in vivo) | increase in IFNγ(+), CD107a(+) TILs in comparison to controls [4] [fold] | survival rate [5] [%] | DC recruitment relative to blank PLG matrices [6] [fold] | resident CD11c(+)PDCA-1(+) pDCs ([6]; in combination with CpG-ODN) | long-term survival rate [7] [%] | DC chemotaxis, migration higher than control condition [8] | DC chemokinesis, increase in number of migrated cells [8] | increase in local concentration of IFN-γ over control scaffolds [9] | increase in local concentration of IL-12 over control scaffolds [9] [fold] | incorporated cytokine released from scaffolds [10] [%] | daily release of protein [10] | other results
monophosphoryl lipid A [MPLA] | approximately 5 fold | ~19 | 1.9 | approximately 15 fold | no effect | did not cause tumors to completely regress | ~1.4 | 80 | – | – | – | – | – | – | – | – | – | IL-12 concentration lower than CpG-ODN and P(I:C) [2]: 2 fold; higher levels of TNF-α [2]: 4 fold; increase in mean survival time over controls ([3]; vaccinated at days 9 and 19): ~1.5 fold
polyinosinic:polycytidylic acid [P(I:C)] | approximately 5 fold | ~28 | 2.2 | ~20 fold | elevated levels | over a third | ~3.1 | 70 | – | – | – | – | – | – | – | – | – | size of tumors that completely regressed / were eradicated ([3]; mouse, in vivo): 35 mm^2; long term survival of mice ([3]; vaccinated at days 9 and 19): 33%
B1 | – | – | – | – | – | – | – | – | 2.5 | approximately 110,000 | 62 | no effect | no effect | no effect | 2 | ~26 | approximately 0.9% | –
B2 | – | – | – | – | – | – | – | – | 2.5 | over 160,000 | 75 | no effect | no effect | 13 fold | 8 | ~36 | approximately 0.9% | pDCs of total cells resident in scaffolds ([6]; in combination with CpG-ODN): approximately 22%; Trp2 specific CTLs in spleens, higher than control vaccines [11]: approximately 5 fold
